The values that follow come from the Kinase Knowledgebase extract (Sharma et al. 2016).

Broadly, the Ki is a measure of affinity in units of concentration, obtained from inhibition or displacement. What is called inhibition is the drop in the measured response relative to a control, in per cent.

The target in one experiment is CDK2 (UniProt P24941). The experiment in a line: Enzyme Assay.
Details: not given
In the case of `Cn1cccc1CNC(=O)c1ccc(Nc2nc(N)c(C(=O)c3c(F)cccc3F)s2)cc1`, the Ki stood at 20 nM.
`C[C@H](CN(C)C)N(C)C(=O)c1ccc(Nc2nc(N)c(C(=O)c3c(F)cccc3F)s2)cc1`: the Ki came to 111 nM.

Still in this experiment, the particulars now being: concentration not given here.
Take `Nc1nc(Nc2ccc(C(=O)N3CCN(c4ccncc4)CC3)cc2)sc1C(=O)c1c(F)cccc1F`: the inhibition was -1%.
For the compound `Nc1nc(Nc2ccc(C(=O)NCCCN3CCCC3=O)cc2)sc1C(=O)c1c(F)cccc1F`, the inhibition was -23%.
With `CCN(CC)CCCN(C)C(=O)c1ccc(Nc2nc(N)c(C(=O)c3c(F)cccc3F)s2)cc1`, the inhibition is -27%.
`Nc1nc(Nc2ccc(C(=O)N[C@H](CO)CC3CCCCC3)cc2)sc1C(=O)c1c(F)cccc1F`: the inhibition is -7%.
With `CC(C)C(C)NC(=O)c1ccc(Nc2nc(N)c(C(=O)c3c(F)cccc3F)s2)cc1` (stereo unspecified), the inhibition is -20%.
On to `Cc1cccc(NC(=O)c2ccc(Nc3nc(N)c(C(=O)c4c(F)cccc4F)s3)cc2)c1`, for which the inhibition was -7%.
Consider `CCCN(CCC#N)C(=O)c1ccc(Nc2nc(N)c(C(=O)c3c(F)cccc3F)s2)cc1`, for which the inhibition is -12%.
Consider `CN(C)C(=O)CN(C)C(=O)c1ccc(Nc2nc(N)c(C(=O)c3c(F)cccc3F)s2)cc1`, for which the inhibition is -23%.
As for `Nc1nc(Nc2ccc(C(=O)Nc3ccc(Cl)nc3)cc2)sc1C(=O)c1c(F)cccc1F`, the inhibition was -9%.
The same measure, in the same setting: the same measure for `CCN(CC)CCN1CCN(C(=O)c2ccc(Nc3nc(N)c(C(=O)c4c(F)cccc4F)s3)cc2)CC1`: -10%.
Take `CC(CNC(=O)c1ccc(Nc2nc(N)c(C(=O)c3c(F)cccc3F)s2)cc1)N(C)C` (stereo unspecified): the inhibition was -7%.
Consider `CN1CCN(C(=O)c2ccc(Nc3nc(N)c(C(=O)c4c(F)cccc4F)s3)cc2)CC1`, for which the inhibition is -9%.
The same measure, in the same setting: next, `C#CCCN(C)C(=O)c1ccc(Nc2nc(N)c(C(=O)c3c(F)cccc3F)s2)cc1`: 0%; `N#CCCN(CC1CCCO1)C(=O)c1ccc(Nc2nc(N)c(C(=O)c3c(F)cccc3F)s2)cc1` (stereo unspecified): -5%; `COc1ccc(OC)c(CCNC(=O)c2ccc(Nc3nc(N)c(C(=O)c4c(F)cccc4F)s3)cc2)c1`: -5%.
Regarding `Nc1nc(Nc2ccc(C(=O)Nc3ccc4ncsc4c3)cc2)sc1C(=O)c1c(F)cccc1F`, the inhibition is 13%.
For `Cc1cc(NC(=O)c2ccc(Nc3nc(N)c(C(=O)c4c(F)cccc4F)s3)cc2)ccc1C(C)C`, the inhibition is -5%.
Regarding `C[C@@H](NC(=O)c1ccc(Nc2nc(N)c(C(=O)c3c(F)cccc3F)s2)cc1)C1CCCCC1`, the inhibition was -18%.
As to `COCCN(CCOC)C(=O)c1ccc(Nc2nc(N)c(C(=O)c3c(F)cccc3F)s2)cc1`, the inhibition is -4%.
Take `Nc1nc(Nc2ccc(C(=O)NCCCCO)cc2)sc1C(=O)c1c(F)cccc1F`: the inhibition is -12%.
On to `CCC(C)CN(CCO)C(=O)c1ccc(Nc2nc(N)c(C(=O)c3c(F)cccc3F)s2)cc1` (stereo unspecified), for which the inhibition was -11%.
Take `Nc1nc(Nc2ccc(C(=O)NCCc3ccc(Cl)cc3)cc2)sc1C(=O)c1c(F)cccc1F`: the inhibition came to 0%.
Still for that read-out and setting: the same measure for `CCOc1ccccc1CCNC(=O)c1ccc(Nc2nc(N)c(C(=O)c3c(F)cccc3F)s2)cc1`: -19%.
As for `Cc1ccc(CCNC(=O)c2ccc(Nc3nc(N)c(C(=O)c4c(F)cccc4F)s3)cc2)cc1`, the inhibition was 14%.
Same read-out and setting: the same measure for `CC1CC(C)CN(C(=O)c2ccc(Nc3nc(N)c(C(=O)c4c(F)cccc4F)s3)cc2)C1` (stereo unspecified): -33%.
As to `CCCCN(CCC#N)C(=O)c1ccc(Nc2nc(N)c(C(=O)c3c(F)cccc3F)s2)cc1`, the inhibition came to 4%.
Take `Nc1nc(Nc2ccc(C(=O)NCCc3cccc(F)c3)cc2)sc1C(=O)c1c(F)cccc1F`: the inhibition was -6%.
For the compound `CC(C)N(Cc1ccccc1)c1ccc(NC(=O)c2ccc(Nc3nc(N)c(C(=O)c4c(F)cccc4F)s3)cc2)cc1`, the inhibition was -4%.
On the same count and under the same terms, the same measure for `C=CCN(CC=C)C(=O)c1ccc(Nc2nc(N)c(C(=O)c3c(F)cccc3F)s2)cc1`: -20%; for `Cc1nccc(-c2cccc(NC(=O)c3ccc(Nc4nc(N)c(C(=O)c5c(F)cccc5F)s4)cc3)c2)n1`: -40%.
Consider `COCC(C)NC(=O)c1ccc(Nc2nc(N)c(C(=O)c3c(F)cccc3F)s2)cc1` (stereo unspecified), for which the inhibition was -2%.
Turning to `NC(=O)c1cccc(NC(=O)c2ccc(Nc3nc(N)c(C(=O)c4c(F)cccc4F)s3)cc2)c1`, the inhibition was -1%.
Regarding `CC(=O)N(C)C1CCN(C(=O)c2ccc(Nc3nc(N)c(C(=O)c4c(F)cccc4F)s3)cc2)C1` (stereo unspecified), the inhibition is -21%.
Turning to `Nc1nc(Nc2ccc(C(=O)N3CCCC3)cc2)sc1C(=O)c1c(F)cccc1F`, the inhibition was -15%.
As for `CC(C)C(CO)NC(=O)c1ccc(Nc2nc(N)c(C(=O)c3c(F)cccc3F)s2)cc1` (stereo unspecified), the inhibition was -3%.
Turning to `CCN(C)C(=O)c1ccc(Nc2nc(N)c(C(=O)c3c(F)cccc3F)s2)cc1`, the inhibition was -12%.
Same read-out and setting: the same measure for `Cc1cc(C)cc(NC(=O)c2ccc(Nc3nc(N)c(C(=O)c4c(F)cccc4F)s3)cc2)c1`: -3%; for `Nc1nc(Nc2ccc(C(=O)NCCCO)cc2)sc1C(=O)c1c(F)cccc1F`: -2%; for `Nc1nc(Nc2ccc(C(=O)Nc3cccc(OC(F)(F)F)c3)cc2)sc1C(=O)c1c(F)cccc1F`: -31%.
For the compound `CN(CCc1ccccc1)C(=O)c1ccc(Nc2nc(N)c(C(=O)c3c(F)cccc3F)s2)cc1`, the inhibition was -12%.
Still for that read-out and setting: the same measure for `CCCN(CC1CC1)C(=O)c1ccc(Nc2nc(N)c(C(=O)c3c(F)cccc3F)s2)cc1`: -3%.
Consider `Nc1nc(Nc2ccc(C(=O)NCCOCCO)cc2)sc1C(=O)c1c(F)cccc1F`, for which the inhibition is -9%.
In the case of `COc1ccc(C(=O)NC(=O)c2ccc(Nc3nc(N)c(C(=O)c4c(F)cccc4F)s3)cc2)cc1N`, the inhibition stood at 15%.
With `Cc1cc(NC(=O)c2ccc(Nc3nc(N)c(C(=O)c4c(F)cccc4F)s3)cc2)ccc1F`, the inhibition was -1%.
Turning to `CC(C)CCCC(C)NC(=O)c1ccc(Nc2nc(N)c(C(=O)c3c(F)cccc3F)s2)cc1` (stereo unspecified), the inhibition was 0%.
With `N#CCCN(Cc1ccccc1)C(=O)c1ccc(Nc2nc(N)c(C(=O)c3c(F)cccc3F)s2)cc1`, the inhibition was 0%.
For the compound `CC(=O)Nc1ccccc1C(=O)c1sc(Nc2ccc(C(=O)NC[C@@H]3CCCN3C)cc2)nc1N`, the inhibition stood at 0%.
Still for that read-out and setting: next, `Nc1nc(Nc2ccc(C(=O)NCCCCCO)cc2)sc1C(=O)c1c(F)cccc1F`: -4%; `CC(=O)c1ccc(NC(=O)c2ccc(Nc3nc(N)c(C(=O)c4c(F)cccc4F)s3)cc2)cc1`: -5%; `CN(C)CCN1CCN(C(=O)c2ccc(Nc3nc(N)c(C(=O)c4c(F)cccc4F)s3)cc2)CC1`: -17%.
`COc1ccc(CCN(C)C(=O)c2ccc(Nc3nc(N)c(C(=O)c4c(F)cccc4F)s3)cc2)cc1OC`: the inhibition was -3%.
The same measure, in the same setting: next, `CC(C)C[C@@H](CO)NC(=O)c1ccc(Nc2nc(N)c(C(=O)c3c(F)cccc3F)s2)cc1`: -16%; `COc1ccc(CNC(=O)c2ccc(Nc3nc(N)c(C(=O)c4c(F)cccc4F)s3)cc2)cc1OC`: -2%; `CC(C)NC(=O)c1ccc(Nc2nc(N)c(C(=O)c3c(F)cccc3F)s2)cc1`: -10%.
Take `CSCC[C@@H](CO)NC(=O)c1ccc(Nc2nc(N)c(C(=O)c3c(F)cccc3F)s2)cc1`: the inhibition is -5%.
As to `CCN(C(=O)c1ccc(Nc2nc(N)c(C(=O)c3c(F)cccc3F)s2)cc1)C1CCCCC1`, the inhibition was -10%.
Still for that read-out and setting: next, `CCOc1cccc(NC(=O)c2ccc(Nc3nc(N)c(C(=O)c4c(F)cccc4F)s3)cc2)c1`: -7%; `Cc1cccc(Cl)c1NC(=O)c1ccc(Nc2nc(N)c(C(=O)c3c(F)cccc3F)s2)cc1`: -12%.
With `Nc1nc(Nc2ccc(C(=O)Nc3ccc(Nc4ccccc4)cc3)cc2)sc1C(=O)c1c(F)cccc1F`, the inhibition was -6%.
With `Nc1nc(Nc2ccc(C(=O)N(CCCCO)Cc3ccccc3)cc2)sc1C(=O)c1c(F)cccc1F`, the inhibition was 0%.
Turning to `Cc1ccc(O)c(NC(=O)c2ccc(Nc3nc(N)c(C(=O)c4c(F)cccc4F)s3)cc2)c1`, the inhibition is -6%.
Consider `CN(Cc1ccco1)C(=O)c1ccc(Nc2nc(N)c(C(=O)c3c(F)cccc3F)s2)cc1`, for which the inhibition was -3%.
The same measure, in the same setting: the same measure for `CN(C(=O)c1ccc(Nc2nc(N)c(C(=O)c3c(F)cccc3F)s2)cc1)C1CCCCC1`: -2%; for `Nc1nc(Nc2ccc(C(=O)N[C@H](CO)Cc3ccccc3)cc2)sc1C(=O)c1c(F)cccc1F`: -14%; for `Cc1ccc(NC(=O)c2ccc(Nc3nc(N)c(C(=O)c4c(F)cccc4F)s3)cc2)c(F)c1`: -30%.
As for `Nc1nc(Nc2ccc(C(=O)NCC(O)CO)cc2)sc1C(=O)c1c(F)cccc1F` (stereo unspecified), the inhibition was -2%.
The same measure, in the same setting: next, `Nc1nc(Nc2ccc(C(=O)N3CCSC3)cc2)sc1C(=O)c1c(F)cccc1F`: -3%; `Nc1nc(Nc2ccc(C(=O)NCCCCCCO)cc2)sc1C(=O)c1c(F)cccc1F`: -5%.
Consider `CCOC(=O)/C=C/c1ccc(Nc2nc(N)c(C(=O)c3c(F)cccc3F)s2)cc1`, for which the inhibition is -3%.
The same measure, in the same setting: next, `CCOCCNC(=O)c1ccc(Nc2nc(N)c(C(=O)c3c(F)cccc3F)s2)cc1`: -4%; `CCCCN(CCCCO)C(=O)c1ccc(Nc2nc(N)c(C(=O)c3c(F)cccc3F)s2)cc1`: -12%.
On to `COCCN(C)C(=O)c1ccc(Nc2nc(N)c(C(=O)c3c(F)cccc3F)s2)cc1`, for which the inhibition is -16%.
For the compound `Nc1nc(Nc2ccc(C(=O)N3CCC(CO)CC3)cc2)sc1C(=O)c1c(F)cccc1F`, the inhibition was -14%.
In the case of `CN(CC(O)CO)C(=O)c1ccc(Nc2nc(N)c(C(=O)c3c(F)cccc3F)s2)cc1` (stereo unspecified), the inhibition stood at 0%.
In the case of `CCCCN(CC#N)C(=O)c1ccc(Nc2nc(N)c(C(=O)c3c(F)cccc3F)s2)cc1`, the inhibition is -1%.
Consider `CC(C)(C)C1CCC(NC(=O)c2ccc(Nc3nc(N)c(C(=O)c4c(F)cccc4F)s3)cc2)CC1` (stereo unspecified), for which the inhibition is -23%.
For the compound `Nc1nc(Nc2ccc(C(=O)NC3CC3)cc2)sc1C(=O)c1c(F)cccc1F`, the inhibition was -5%.
In the case of `CC(=O)N[C@@H]1CCN(C(=O)c2ccc(Nc3nc(N)c(C(=O)c4c(F)cccc4F)s3)cc2)C1`, the inhibition is -7%.
Consider `C=CCN(C)C(=O)c1ccc(Nc2nc(N)c(C(=O)c3c(F)cccc3F)s2)cc1`, for which the inhibition is -6%.
